According to patent US20260137642A1 (CANCER PREVENTION PHARMACEUTICALS, INC., priority 2021, published 2026):

Columns and labels:
[1] = Phase I/II trial in new onset T1D: adverse events judged possibly or probably related to drug; format: in vivo, human; conditions: for Adverse events possibly or probably related to drug: Abdominal Pain / Adverse events possibly or probably related to drug: Congestion / Adverse events possibly or probably related to drug: Cough / Adverse events possibly or probably related to drug: Diarrhea / Adverse events possibly or probably related to drug: Dizziness / Adverse events possibly or probably related to drug: Gastrointestinal (Total) / Adverse events possibly or probably related to drug: Hematologic, Anemia / Adverse events possibly or probably related to drug: Hot flashes associated with viral illness / Adverse events possibly or probably related to drug: Nausea / Adverse events possibly or probably related to drug: Nausea with IV placement / Adverse events possibly or probably related to drug: Neurologic, Headache / Adverse events possibly or probably related to drug: Other Viral Illness / Adverse events possibly or probably related to drug: Other infectious/immune, Pump site infection / Adverse events possibly or probably related to drug: Other, Hypoglycemia / Adverse events possibly or probably related to drug: Other, Urticaria/anaphylaxis / Adverse events possibly or probably related to drug: URI / Adverse events possibly or probably related to drug: Vomiting / Adverse events possibly or probably related to drug: Hematologic, Grade 1 Neutropenia: daily oral; for Adverse events possibly or probably related to drug: Hematologic, Grade 1 Neutropenia: neutrophil count < lower limit of normal but above 1500/mm^3
From the text: The primary efficacy measure was changes in pro-insulin to C-peptide ratios as a marker of β cell ER stress. The secondary objectives of the study were to elucidate the relationship between primary dose and markers of endoplasmic reticulum (ER) stress, polyamine concentrations, glycemic, and immunologic outcomes in persons with new onset T1D, and to characterize the dietary polyamine intake and urinary polyamine excretion of persons with recent-onset T1D. Secondary efficacy measures included other biomarkers of β cell stress, stimulated C-peptide values, and changes in T-cell subsets. This study was double-blind, placebo-controlled, 2:1 random assigned, phase I/II clinic trial for individuals with type 1 diabetes. The blinded dose-ranging study enrolled persons with new onset T1D with documented continued residual C-peptide production. […] After a 3 month wash-out period, the durability of effect was assessed. […] Males and females 12-40 years of age with a clinical diagnosis of T1D within 2-8 months of the time of visit 2; 2. […] Positive for any one of the following diabetes-related autoantibodies (mIAA, GADA, IA-2A, or ZnT8A); 4. Treatment naïve of any immunomodulatory agent; 5. […] Presence of any psychiatric disorder that will affect ability to participate in study, including psychiatric impairment or current use of anti-psychotic medication; 3. […] Chronic illness known to affect glucose metabolism (e.g. Cushing syndrome, polycystic ovarian disorder, cystic fibrosis) or taking medications that affect glucose metabolism (e.g. steroids, metformin); 5. Inability to swallow pills; 6. Hematologic abnormalities at screening (anemia, leukopenia (particularly neutropenia), or thrombocytopenia); 7. […] Female participants of child-bearing age must not be pregnant and agree to use an effective form of birth control or be abstinent during the study period; 9. BMI >95% for age and sex. […] The enrollment cohorts were as follows: […] [table] […] Possible drug-related expected AEs included mild-moderate nausea/vomiting/abdominal pain and diarrhea, moderate headache, upper respiratory infections, a pump site infection, and mild anemia. […] Adverse events judges by masked study investigators as possibly or probably related to drug are showing in Table 3.

[2] = tested on: C-peptide; assay: Phase I/II trial in new onset T1D: C-peptide by 2-h MMTT; format: in vivo, human; conditions: for C-peptide area under the curve values compared to the placebo group: 6-month post-randomization visit
Protocol: This study was double-blind, placebo-controlled, 2:1 random assigned, phase I/II clinic trial for individuals with type 1 diabetes. The blinded dose-ranging study enrolled persons with new onset T1D with documented continued residual C-peptide production. […] After a 3 month wash-out period, the durability of effect was assessed. [table]

## NCCCC(N)(C(=O)O)C(F)F (stereo not drawn) [eflornithine, 2,5-diamino-2-(difluoromethyl) pentanoic acid]
[1]; 125 mg/m^2 (n = 6)
  Adverse events possibly or probably related to drug: Abdominal Pain: 1
  Adverse events possibly or probably related to drug: Congestion: 0
  Adverse events possibly or probably related to drug: Cough: 0
  Adverse events possibly or probably related to drug: Diarrhea: 0
  Adverse events possibly or probably related to drug: Dizziness: 0
  Adverse events possibly or probably related to drug: Gastrointestinal (Total): 1
  Adverse events possibly or probably related to drug: Hematologic, Anemia: 0
  Adverse events possibly or probably related to drug: Hot flashes associated with viral illness: 0
  Adverse events possibly or probably related to drug: Nausea: 0
  Adverse events possibly or probably related to drug: Nausea with IV placement: 0
  Adverse events possibly or probably related to drug: Neurologic, Headache: 1
  Adverse events possibly or probably related to drug: Other Viral Illness: 0
  Adverse events possibly or probably related to drug: Other infectious/immune, Pump site infection: 0
  Adverse events possibly or probably related to drug: Other, Hypoglycemia: 0
  Adverse events possibly or probably related to drug: Other, Urticaria/anaphylaxis: 0
  Adverse events possibly or probably related to drug: URI: 0
  Adverse events possibly or probably related to drug: Vomiting: 1
  Adverse events possibly or probably related to drug: Hematologic, Grade 1 Neutropenia: 1
[1]; 250 mg/m^2 (n = 6)
  Adverse events possibly or probably related to drug: Abdominal Pain: 0
  Adverse events possibly or probably related to drug: Congestion: 0
  Adverse events possibly or probably related to drug: Cough: 0
  Adverse events possibly or probably related to drug: Diarrhea: 1
  Adverse events possibly or probably related to drug: Dizziness: 0
  Adverse events possibly or probably related to drug: Gastrointestinal (Total): 1
  Adverse events possibly or probably related to drug: Hematologic, Anemia: 0
  Adverse events possibly or probably related to drug: Hot flashes associated with viral illness: 0
  Adverse events possibly or probably related to drug: Nausea: 0
  Adverse events possibly or probably related to drug: Nausea with IV placement: 0
  Adverse events possibly or probably related to drug: Neurologic, Headache: 0
  Adverse events possibly or probably related to drug: Other Viral Illness: 0
  Adverse events possibly or probably related to drug: Other infectious/immune, Pump site infection: 0
  Adverse events possibly or probably related to drug: Other, Hypoglycemia: 0
  Adverse events possibly or probably related to drug: Other, Urticaria/anaphylaxis: 0
  Adverse events possibly or probably related to drug: URI: 0
  Adverse events possibly or probably related to drug: Vomiting: 0
  Adverse events possibly or probably related to drug: Hematologic, Grade 1 Neutropenia: 0
[1]; 500 mg/m^2 (n = 6)
  Adverse events possibly or probably related to drug: Abdominal Pain: 0
  Adverse events possibly or probably related to drug: Congestion: 0
  Adverse events possibly or probably related to drug: Cough: 0
  Adverse events possibly or probably related to drug: Diarrhea: 0
  Adverse events possibly or probably related to drug: Dizziness: 0
  Adverse events possibly or probably related to drug: Gastrointestinal (Total): 0
  Adverse events possibly or probably related to drug: Hematologic, Anemia: 0
  Adverse events possibly or probably related to drug: Hot flashes associated with viral illness: 0
  Adverse events possibly or probably related to drug: Nausea: 0
  Adverse events possibly or probably related to drug: Nausea with IV placement: 0
  Adverse events possibly or probably related to drug: Neurologic, Headache: 0
  Adverse events possibly or probably related to drug: Other Viral Illness: 0
  Adverse events possibly or probably related to drug: Other infectious/immune, Pump site infection: 0
  Adverse events possibly or probably related to drug: Other, Hypoglycemia: 1
  Adverse events possibly or probably related to drug: Other, Urticaria/anaphylaxis: 0
  Adverse events possibly or probably related to drug: URI: 0
  Adverse events possibly or probably related to drug: Vomiting: 0
  Adverse events possibly or probably related to drug: Hematologic, Grade 1 Neutropenia: 0
[1]; 750 mg/m^2 (n = 7)
  Adverse events possibly or probably related to drug: Abdominal Pain: 2
  Adverse events possibly or probably related to drug: Congestion: 2
  Adverse events possibly or probably related to drug: Cough: 0
  Adverse events possibly or probably related to drug: Diarrhea: 0
  Adverse events possibly or probably related to drug: Dizziness: 2
  Adverse events possibly or probably related to drug: Gastrointestinal (Total): 5
  Adverse events possibly or probably related to drug: Hematologic, Anemia: 1
  Adverse events possibly or probably related to drug: Hot flashes associated with viral illness: 0
  Adverse events possibly or probably related to drug: Nausea: 3
  Adverse events possibly or probably related to drug: Nausea with IV placement: 1
  Adverse events possibly or probably related to drug: Neurologic, Headache: 0
  Adverse events possibly or probably related to drug: Other Viral Illness: 1
  Adverse events possibly or probably related to drug: Other infectious/immune, Pump site infection: 0
  Adverse events possibly or probably related to drug: Other, Hypoglycemia: 0
  Adverse events possibly or probably related to drug: Other, Urticaria/anaphylaxis: 1
  Adverse events possibly or probably related to drug: URI: 2
  Adverse events possibly or probably related to drug: Vomiting: 0
  Adverse events possibly or probably related to drug: Hematologic, Grade 1 Neutropenia: 0
[1]; 1000 mg/m^2 (n = 6)
  Adverse events possibly or probably related to drug: Abdominal Pain: 1
  Adverse events possibly or probably related to drug: Congestion: 1
  Adverse events possibly or probably related to drug: Cough: 1
  Adverse events possibly or probably related to drug: Diarrhea: 0
  Adverse events possibly or probably related to drug: Dizziness: 0
  Adverse events possibly or probably related to drug: Gastrointestinal (Total): 2
  Adverse events possibly or probably related to drug: Hematologic, Anemia: 2
  Adverse events possibly or probably related to drug: Hot flashes associated with viral illness: 1
  Adverse events possibly or probably related to drug: Nausea: 1
  Adverse events possibly or probably related to drug: Nausea with IV placement: 0
  Adverse events possibly or probably related to drug: Neurologic, Headache: 2
  Adverse events possibly or probably related to drug: Other Viral Illness: 0
  Adverse events possibly or probably related to drug: Other infectious/immune, Pump site infection: 1
  Adverse events possibly or probably related to drug: Other, Hypoglycemia: 0
  Adverse events possibly or probably related to drug: Other, Urticaria/anaphylaxis: 0
  Adverse events possibly or probably related to drug: URI: 2
  Adverse events possibly or probably related to drug: Vomiting: 0
  Adverse events possibly or probably related to drug: Hematologic, Grade 1 Neutropenia: 0
[1]; 3-month course of oral eflornithine, children and adults with recent-onset T1D
  Tolerability: well tolerated with a favorable AE profile
[1]; daily oral doses of 125, 250, 500, 750, and 1000 mg/m^2, drug or placebo
  Severity of adverse events noted: Mild and moderate AEs
[1]; individuals on active drug, daily oral doses of 125, 250, 500, 750, and 1000 mg/m^2
  Unexpected drug-related effects: No unexpected effects judged related to drug
[2]; 750 mg/m^2 dose
  C-peptide area under the curve values compared to the placebo group: significantly higher
[2]; 1000 mg/m^2 dose
  C-peptide area under the curve values compared to the placebo group: significantly higher
[2]; at higher doses, 3-month oral course
  β cell function compared to placebo: greater β cell function compared to placebo
